Values of other authors as cited in patent US7807830B2, “Manufacture of pure hydralazine salts” (Navinta LLC, priority 2005, dated 2010).
Where a name gives a salt, the structure may show the parent alone. Read-outs that look alike come from different tables or passages of the source.

## NNc1nncc2ccccc12 [Hydralazine hydrochloride, 1-hydrazinophthalazine]
Given intravenously
  onset of action: 10 to 20 min
In vivo
  duration of action: 3 to 4 h
  maximum hypotensive effect in: 10 to 80 min
Oral administration
  onset of action: 10 to 30 min
